Data published in patent publication US10052306B2 (LUC THERAPEUTICS, INC., priority 2013, dated 2018).
Where two headings read alike, the source gives them in different places.

Key:
NR1/NR2B [1] = biological target: NR1/NR2B (Homo sapiens (Human), UniProt Q05586+Q13224); experiment: Cell assay: FDSS Ca2+ influx inhibition in HEK293 cells expressing NR1/NR2B; details: Binned Activity, HEK293 cells expressing NR1/NR2B, Ca2+ influx; binned NR2B NAM IC50;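 also: Fluo-8 Ca2+ signal read on Hamamatsu FDSS 6000 after glutamate, glycine and Ca2+ challenge following 10 min compound preincubation, end/baseline fluorescence ratio compared with MK801 control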
Chain of NR1/NR2B (Homo sapiens (Human), UniProt Q05586+Q13224) (Q13224 27-1484, other chains not shown): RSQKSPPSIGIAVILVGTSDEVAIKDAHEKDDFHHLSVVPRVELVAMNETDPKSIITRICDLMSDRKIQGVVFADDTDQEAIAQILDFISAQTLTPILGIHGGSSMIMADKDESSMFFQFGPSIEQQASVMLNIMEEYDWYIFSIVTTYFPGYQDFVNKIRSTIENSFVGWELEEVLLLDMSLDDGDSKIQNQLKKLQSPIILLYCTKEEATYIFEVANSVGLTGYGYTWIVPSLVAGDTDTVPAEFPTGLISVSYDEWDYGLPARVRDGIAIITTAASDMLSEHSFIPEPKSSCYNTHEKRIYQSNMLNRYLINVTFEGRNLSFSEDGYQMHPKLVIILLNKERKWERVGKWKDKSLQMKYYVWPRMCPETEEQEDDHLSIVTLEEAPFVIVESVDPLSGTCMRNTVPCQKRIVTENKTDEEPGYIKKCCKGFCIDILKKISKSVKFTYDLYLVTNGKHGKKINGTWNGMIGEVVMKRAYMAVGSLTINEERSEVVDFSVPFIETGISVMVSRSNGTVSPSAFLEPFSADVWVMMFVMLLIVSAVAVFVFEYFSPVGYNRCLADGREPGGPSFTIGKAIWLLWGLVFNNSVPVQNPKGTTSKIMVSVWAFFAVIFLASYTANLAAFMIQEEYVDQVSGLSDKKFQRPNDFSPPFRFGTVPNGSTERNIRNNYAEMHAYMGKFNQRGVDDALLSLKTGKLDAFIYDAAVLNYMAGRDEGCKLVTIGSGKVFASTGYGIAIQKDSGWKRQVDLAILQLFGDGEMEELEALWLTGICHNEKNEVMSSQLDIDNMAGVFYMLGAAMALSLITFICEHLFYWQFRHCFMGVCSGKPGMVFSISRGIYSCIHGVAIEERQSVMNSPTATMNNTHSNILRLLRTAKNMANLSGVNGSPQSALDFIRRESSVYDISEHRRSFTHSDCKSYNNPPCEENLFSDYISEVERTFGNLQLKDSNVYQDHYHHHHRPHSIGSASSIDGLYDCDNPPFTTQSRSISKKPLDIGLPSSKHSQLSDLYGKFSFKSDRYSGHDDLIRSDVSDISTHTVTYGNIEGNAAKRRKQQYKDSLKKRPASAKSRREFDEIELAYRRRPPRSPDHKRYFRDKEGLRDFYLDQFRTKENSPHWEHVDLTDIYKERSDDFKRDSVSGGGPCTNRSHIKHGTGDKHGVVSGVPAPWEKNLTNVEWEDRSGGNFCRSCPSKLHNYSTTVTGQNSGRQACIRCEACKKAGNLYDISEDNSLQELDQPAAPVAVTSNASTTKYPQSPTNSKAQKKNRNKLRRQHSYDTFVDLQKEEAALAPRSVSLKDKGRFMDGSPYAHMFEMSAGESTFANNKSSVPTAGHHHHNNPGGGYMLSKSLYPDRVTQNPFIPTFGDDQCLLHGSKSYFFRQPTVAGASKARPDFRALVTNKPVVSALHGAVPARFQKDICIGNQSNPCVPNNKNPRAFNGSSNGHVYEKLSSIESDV

NR1/NR2B [2] = biological target: NR1/NR2B (Homo sapiens (Human), UniProt Q13224); experiment: as above; details: read-out: NR2B NAM IC50
Chain of NR1/NR2B (Homo sapiens (Human), UniProt Q13224) (Q13224 27-1484, other chains not shown): as above

[3] = HEK293 cells expressing NR1/NR2B, Ca2+ influx

| Structure (SMILES) | IC50 (NR1/NR2B [1]) | IC50 (NR1/NR2B [2]; [3]) | IC50 (NR1/NR2B [2]) |
| --- | --- | --- | --- |
| O=C(CN1C[C@@H]2C[C@@](O)(CC3CC3)C[C@@H]2C1)c1ccc(O)cn1 [Example 207, 2-((3aR,5r,6aS)-5-(cyclopropylmethyl)-5-hydroxyhexahydrocyclo-penta[c]pyrrol-2(1H)-yl)-1-(5-hydroxypyridin-2-yl)ethanone] | > 10 µM | 10 µM | – |
| COC(=O)c1ccc(NC(=O)N2C[C@@H]3C[C@@](O)(c4ccccc4C)C[C@@H]3C2)cc1 [Example 22, Methyl 4-(5-hydroxy-5-(o-tolyl)octahydrocyclopenta [c]pyrrole-2-carboxamido)benzoate] | > 10 µM | 10 µM | – |
| COc1ncc(-c2ccc(C(=O)CN3C[C@@H]4C[C@@](O)(Cc5ccccc5)C[C@@H]4C3)cc2)cn1 [Example 279, 2-((3aR,5r,6aS)-5-benzyl-5-hydroxyhexahydrocyclo-penta[c]pyrrol-2(1H)-yl)-1-(4-(2-methoxypyrimidin-5-yl)phenyl)ethanone] | > 10 µM | 10 µM | – |
| O[C@@]1(c2ccc(F)cc2)C[C@H]2CN(c3ccccn3)C[C@H]2C1 [Example 80, 5-(4-fluorophenyl)-2-(pyridin-2-yl)-octahydrocyclopenta[c] pyrrol-5-ol] | > 10 µM | 10 µM | – |
| COc1ccccc1CNC(=O)N1C[C@H]2C[C@@H](c3ccccc3)C[C@H]2C1 [Example 112, N-[(2-methoxyphenyl)methyl]-5-phenyl-octahydrocyclopenta[c] pyrrole-2-carboxamide] | > 10 µM | 10 µM | – |
| CC(C)(C)c1ccc([C@]2(O)C[C@H]3CN(C(=O)Nc4cccc(Cl)c4)C[C@H]3C2)cc1 [Example 56, 5-(4-tert-butylphenyl)-N-(3-chlorophenyl)-5-hydroxy-octahydrocyclopenta[c] pyrrole-2-carboxamide] | > 10 µM | 10 µM | – |
| COc1cccc([C@]2(O)C[C@H]3CN(CC(=O)c4cccc(F)c4)C[C@H]3C2)c1 [Example 62, 1-(3-fluorophenyl)-2-[5-hydroxy-5-(3-methoxyphenyl)-octahydrocyclopenta[c]pyrrol-2-yl]ethan-1-one] | > 10 µM | 10 µM | – |
| O=C(CN1C[C@@H]2C[C@@](O)(CC3CCCCC3)C[C@@H]2C1)c1ccc(O)cn1 [Example 206, 2-[(3aR,5R,6aS)-5-(cyclohexylmethyl)-5-hydroxy-octahydrocyclopenta[c]pyrrol-2-yl]-1-(5-hydroxypyridin-2-yl)ethan-1-one] | > 10 µM | 10 µM | – |
| CO[C@@]1(Cc2ccccc2)C[C@H]2CN(CC(=O)c3ccc(O)c(F)n3)C[C@H]2C1 [Example 197, 2-((3aR,5r,6aS)-5-benzyl-5-methoxyhexahydrocyclo-penta[c]pyrrol-2(1H)-yl)-1-(6-fluoro-5-hydroxypyridin-2-yl)ethanone] | > 10 µM | 10 µM | – |
| Oc1ccc([C@H](O)CN2C[C@@H]3C[C@](O)(Cc4ccccc4)C[C@@H]3C2)cc1 [Example 292, (3aR,5S,6aS)-5-benzyl-2-((S)-2-hydroxy-2-(4-hydroxyphenyl)ethyl) octahydrocyclopenta [c]pyrrol-5-ol] | 1 to 10 µM | 4.71 µM | – |
| COc1cccc(C[C@]2(O)C[C@H]3CN(CC(=O)c4ccc(O)cn4)C[C@H]3C2)c1 [Example 193, 2-((3aR,5r,6aS)-5-hydroxy-5-(3-meth-oxybenzyl)hexahydro-cyclopenta[c]pyrrol-2(1H)-yl)-1-(5-hydroxypyridin-2-yl)ethanone] | > 10 µM | 10 µM | – |
| O=C(CN1C[C@@H]2C[C@@](O)(Cc3ccccc3)C[C@@H]2C1)c1ccc(O)nc1 [Example 178, 2-[(3aR,5R,6aS)-5-benzyl-5-hydroxy-octahydrocyclopenta[c]pyrrol-2-yl]-1-(6-hydroxypyridin-3-yl)ethan-1-one] | > 10 µM | 10 µM | – |
| O=C(Nc1ccc(Cl)c(C(F)(F)F)c1)N1C[C@@H]2C[C@@](O)(Cc3ccccc3)C[C@@H]2C1 [Example 120, (3aR,5r,6aS)-5-benzyl-N-(4-chloro-3-(trifluoromethyl)phenyl)-5-hydroxyhexahydrocyclo-penta[c]pyrrole-2(1H)-carboxamide] | > 10 µM | 10 µM | – |
| COc1cccc(NC(=O)N2C[C@@H]3C[C@@](O)(Cc4ccccc4)C[C@@H]3C2)c1 [Example 119, (3aR,5r,6aS)-5-benzyl-5-hydroxy-N-(3-methoxy-phenyl)hexahydro-cyclopenta[c]pyrrole-2(1H)-carboxamide] | > 10 µM | 10 µM | – |
| COc1ccc(C[C@]2(O)C[C@H]3CN(CC(=O)c4ccc(O)cc4)C[C@H]3C2)cc1 [Example 184, 2-[(3aR,5R,6aS)-5-hydroxy-5-[(4-methoxyphenyl)methyl]-octahydrocyclopenta[c]pyrrol-2-yl]-1-(4-hydroxyphenyl)ethan-1-one] | < 0.1 µM | 0.0433 µM | – |
| O=C(Nc1ccc(Cl)c(C(F)(F)F)c1)N1C[C@H]2C[C@@H](c3ccccc3)C[C@H]2C1 [Example 108, N-[4-chloro-3-(trifluoromethyl)phenyl]-5-phenyl-octahydrocyclopenta[c] pyrrole-2-carboxamide] | > 10 µM | 10 µM | – |
| O=C(Nc1cccnc1)N1C[C@H]2C[C@@H](c3ccccc3)C[C@H]2C1 [Example 111, 5-phenyl-N-(pyridin-3-yl)-octahydrocyclopenta[c] pyrrole-2-carboxamide] | > 10 µM | 10 µM | – |
| O=C(CN1C[C@@H]2C[C@@](O)(Cc3ccc(F)cc3)C[C@@H]2C1)c1ccc(O)cn1 [Example 166, 2-((3aR,5r,6aS)-5-(4-fluorobenzyl)-5-hydroxyhexahydrocyclo-penta[c]pyrrol-2(1H)-yl)-1-(5-hydroxypyridin-2-yl)ethanone] | 1 to 10 µM | 6.4 µM | – |
| COc1cccc([C@]2(O)C[C@H]3CN(C(=O)Nc4cc(C)ccc4OC)C[C@H]3C2)c1 [Example 33, 5-hydroxy-N-(2-methoxy-5-methylphenyl)-5-(3-methoxyphenyl)-octahydrocyclopenta[c] pyrrole-2-carboxamide] | > 10 µM | 10 µM | – |
| COc1cccc([C@]2(O)C[C@H]3CN(CC(=O)c4ccccc4)C[C@H]3C2)c1 [Example 59, 2-[5-hydroxy-5-(3-methoxyphenyl)-octahydrocyclopenta[c]pyrrol-2-yl]-1-phenylethan-1-one] | > 10 µM | – | 10 µM |
| CO[C@@]1(Cc2ccccc2)C[C@H]2CN(CC(=O)c3ccc(O)cc3)C[C@H]2C1 [Example 174, 2-((3aR,5r,6aS)-5-benzyl-5-methoxyhexahydrocyclo-penta[c]pyrrol-2(1H)-yl)-1-(4-hydroxyphenyl)ethanone] | < 0.1 µM | 0.0572 µM | – |
| O=C(CN1C[C@@H]2C[C@@](O)(CC3CCCCC3)C[C@@H]2C1)c1ccc(O)cc1 [Example 205, 2-[(3aR,5R,6aS)-5-(cyclohexylmethyl)-5-hydroxy-octahydrocyclopenta[c]pyrrol-2-yl]-1-(4-hydroxyphenyl)ethan-1-one] | 0.1 to 1 µM | 0.346 µM | – |
